Experimental data as given in patent US7491819B1 (priority 2004, dated 2009).

Test system: HIV-1 303B
Assay: microbe, parasite or virus in culture
Type: cell-based
Conditions: for EC50: Human immunodeficiency virus 1, MT2, 120 h; for overall antiviral effect of the two-drug combination with Example 19 (in words): classification from combination indices and confidence intervals; for Combination Indices at 50% HIV Inhibition (Confidence Interval) / Combination Indices at 75% HIV Inhibition (Confidence Interval) / Combination Indices at 90% HIV Inhibition (Confidence Interval): in combination with Example 19, 95% CI in parenthesis
Experimental: Virus and cell lines. The T-cell line, MT-2, was obtained through the AIDS Research and Reference Reagent Program. MT-2 cells were sub-cultured twice a week in RPMI 1640 medium supplemented with 10% fetal bovine serum, 2 mM L-glutamine, and 10 mM HEPES buffer pH 7.5. The HIV-1303B virus is a molecular clone derived from the NL4-3 strain of HIV-1 that was obtained from the NIH AIDS Research and Reference Reagent Program. For combinations with enfuvirtide, the NL36G virus was used. […] Virus stocks were made by transfecting 293T cells with a proviral DNA clone using LipofectAMINE PLUS (Invitrogen), according to the manufacturer's instructions. Three days post-transfection, virus was harvested and passaged once in MT-2 cells before titration in MT-2 cells.
Chemicals. Example 19, atazanavir, didanosine, stavudine, efavirenz, and enfuvirtide (T-20) were synthesized by Bristol-Myers Squibb using published or known reactions. […] Tenofovir was tested as tenofovir disopoxil fumarate. Zidovudine and zalcitabine were purchased from Sigma, and emtricitabine from Moravek Biochemicals.
Drug Susceptibility and Cytotoxicity Assays. For drug susceptibility assays, MT-2 cells were infected with HIV-1 303B (or NL36G), at an MOI of 0.001, and seeded into 96-well microtiter plates (2.5×10^5 cells/ml) containing serial dilutions of test compounds. […] Each drug ratio consisted of an array of 3-fold serial dilutions, and was performed with eight or more replicas on separate multi-well plates. HIV infected cells were incubated at 37° C. in 5% CO2, and on day five post-infection, the extent of virus replication was measured by determining cell viability using the CellTiter 96 Aqueous Non-Radioactive Cell Proliferation Assay (Promega). […] Cytotoxicity assays were performed in parallel with the combination experiments. Here, uninfected cells were exposed to the same drug combinations, and assayed after five days for cell viability using the MTS assay.
Analysis of Drug Combination Effects. For determination of combination index (CI) values, drugs were diluted in a fixed ratio and multiple ratios were analyzed. The drug serial dilutions spanned a range of concentrations near the EC50 value of each compound, so that equivalent antiviral activities could be compared. The normalized responses from each therapy are fit to the four-parameter logistic model with a common minimum and maximum across all therapies. Conceptually, this equation can be written as
In this equation, Fa stands for “fraction affected,” and represents the fraction of the viral load that has been inactivated. […] The EC50, represented by the Ci in the above equation, is the drug concentration that is expected to reduce the amount of virus by 50%, and the Bi are the parameters that reflects the slope of the concentration-response curve. For this assay, A is the bottom plateau common to all curves, D is the common top plateau, Bj is the “slope” parameter for the jth therapy, and Cj is the concentration that produces an effect equal to the average of A and D for the jth therapy. Therapies 1 and 2 correspond to mono therapies 1 and 2, respectively. Therapies 3, 4, and 5 correspond to the three combination therapies. EC50 values for each drug were determined from the single drug experiments, using the above equation. The equation was fit using a nonlinear regression routine (Proc Nlin) in PC SAS version 8.2 (SAS Institute Inc.).
To assess antiviral effects of different drug combination treatments, combination indices (CIs) were calculated according to Chou and Rideout. The combination index was computed as
In this equation [Dm]1 and [Dm]2 are the concentrations of drugs that would individually produce a specific level of effect, while [D]1 and [D]2 are the concentrations of drugs in combination that would produce the same level of effect.
Theoretically, additivity is implied if the CI is equal to one, synergy if the CI is less than one, and antagonism if the CI is greater than one.

[1] = EC50 ratio Example 19:comparator 1:1
[2] = EC50 ratio Example 19:comparator 1:2.5
[3] = EC50 ratio Example 19:comparator 2.5:1

CC(C)CN(C[C@@H](O)[C@H](Cc1ccccc1)NC(=O)O[C@H]1CCOC1)S(=O)(=O)c1ccc(N)cc1 [Amprenavir, amprenavir]
EC50: 62 nM | overall antiviral effect of the two-drug combination with Example 19 (in words): synergistic-additive effect | Combination Indices at 50% HIV Inhibition (Confidence Interval) [1]: 0.83 (0.67, 1.00) | Combination Indices at 75% HIV Inhibition (Confidence Interval) [1]: 0.84 (0.61, 1.08) | Combination Indices at 90% HIV Inhibition (Confidence Interval) [1]: 0.89 (0.50, 1.23) | Combination Indices at 50% HIV Inhibition (Confidence Interval) [2]: 0.84 (0.69, 0.99) | Combination Indices at 75% HIV Inhibition (Confidence Interval) [2]: 0.77 (0.58, 0.96) | Combination Indices at 90% HIV Inhibition (Confidence Interval) [2]: 0.75 (0.46, 1.04) | Combination Indices at 50% HIV Inhibition (Confidence Interval) [3]: 0.90 (0.77, 1.04) | Combination Indices at 75% HIV Inhibition (Confidence Interval) [3]: 0.62 (0.50, 0.74) | Combination Indices at 90% HIV Inhibition (Confidence Interval) [3]: 0.44 (0.30, 0.57)

COC(=O)N[C@H](C(=O)N[C@@H](Cc1ccccc1)[C@@H](O)CN(Cc1ccc(-c2ccccn2)cc1)NC(=O)[C@@H](NC(=O)OC)C(C)(C)C)C(C)(C)C [Atazanavir, atazanavir]
EC50: 10 nM | overall antiviral effect of the two-drug combination with Example 19 (in words): confidence interval is below one at all concentrations and effective levels | Combination Indices at 50% HIV Inhibition (Confidence Interval) [1]: 0.87 (0.79, 0.96) | Combination Indices at 75% HIV Inhibition (Confidence Interval) [1]: 0.67 (0.55, 0.80) | Combination Indices at 90% HIV Inhibition (Confidence Interval) [1]: 0.52 (0.37, 0.67) | Combination Indices at 50% HIV Inhibition (Confidence Interval) [2]: 0.65 (0.51, 0.78) | Combination Indices at 75% HIV Inhibition (Confidence Interval) [2]: 0.45 (0.31, 0.58) | Combination Indices at 90% HIV Inhibition (Confidence Interval) [2]: 0.31 (0.19, 0.44) | Combination Indices at 50% HIV Inhibition (Confidence Interval) [3]: 0.78 (0.69, 0.86) | Combination Indices at 75% HIV Inhibition (Confidence Interval) [3]: 0.60 (0.54, 0.67) | Combination Indices at 90% HIV Inhibition (Confidence Interval) [3]: 0.47 (0.40, 0.54)

CC(C)Nc1cccnc1N1CCN(C(=O)c2cc3cc(NS(C)(=O)=O)ccc3[nH]2)CC1 [Delavirdine, delavirdine]
EC50: 43 nM | Combination Indices at 50% HIV Inhibition (Confidence Interval) [1]: 0.76 (0.64, 0.89) | Combination Indices at 75% HIV Inhibition (Confidence Interval) [1]: 0.60 (0.47, 0.74) | Combination Indices at 90% HIV Inhibition (Confidence Interval) [1]: 0.48 (0.31, 0.64) | Combination Indices at 50% HIV Inhibition (Confidence Interval) [2]: 0.68 (0.58, 0.77) | Combination Indices at 75% HIV Inhibition (Confidence Interval) [2]: 0.44 (0.32, 0.54) | Combination Indices at 90% HIV Inhibition (Confidence Interval) [2]: 0.28 (0.17, 0.39) | Combination Indices at 50% HIV Inhibition (Confidence Interval) [3]: 0.80 (0.68, 0.92) | Combination Indices at 75% HIV Inhibition (Confidence Interval) [3]: 0.53 (0.42, 0.63) | Combination Indices at 90% HIV Inhibition (Confidence Interval) [3]: 0.35 (0.25, 0.45)

O=c1[nH]cnc2c1ncn2[C@H]1CC[C@@H](CO)O1 [Didanosine, didanosine]
EC50: 10700 nM | overall antiviral effect of the two-drug combination with Example 19 (in words): synergistic | Combination Indices at 50% HIV Inhibition (Confidence Interval) [1]: 0.58 (0.53, 0.63) | Combination Indices at 75% HIV Inhibition (Confidence Interval) [1]: 0.47 (0.35, 0.60) | Combination Indices at 90% HIV Inhibition (Confidence Interval) [1]: 0.39 (0.22, 0.56) | Combination Indices at 50% HIV Inhibition (Confidence Interval) [2]: 0.56 (0.51, 0.62) | Combination Indices at 75% HIV Inhibition (Confidence Interval) [2]: 0.46 (0.40, 0.52) | Combination Indices at 90% HIV Inhibition (Confidence Interval) [2]: 0.38 (0.32, 0.44) | Combination Indices at 50% HIV Inhibition (Confidence Interval) [3]: 0.50 (0.46, 0.54) | Combination Indices at 75% HIV Inhibition (Confidence Interval) [3]: 0.49 (0.44, 0.53) | Combination Indices at 90% HIV Inhibition (Confidence Interval) [3]: 0.48 (0.42, 0.54)

O=C1Nc2ccc(Cl)cc2[C@@](C#CC2CC2)(C(F)(F)F)O1 [Efavirenz, efavirenz]
EC50: 1.6 nM | overall antiviral effect of the two-drug combination with Example 19 (in words): synergism at most effective concentrations and molar ratios | Combination Indices at 50% HIV Inhibition (Confidence Interval) [1]: 0.83 (0.75, 0.92) | Combination Indices at 75% HIV Inhibition (Confidence Interval) [1]: 0.76 (0.64, 0.88) | Combination Indices at 90% HIV Inhibition (Confidence Interval) [1]: 0.70 (0.54, 0.85) | Combination Indices at 50% HIV Inhibition (Confidence Interval) [2]: 0.95 (0.86, 1.04) | Combination Indices at 75% HIV Inhibition (Confidence Interval) [2]: 0.93 (0.85, 1.02) | Combination Indices at 90% HIV Inhibition (Confidence Interval) [2]: 0.93 (0.79, 1.06) | Combination Indices at 50% HIV Inhibition (Confidence Interval) [3]: 1.01 (0.92, 1.10) | Combination Indices at 75% HIV Inhibition (Confidence Interval) [3]: 0.96 (0.83, 1.10) | Combination Indices at 90% HIV Inhibition (Confidence Interval) [3]: 0.94 (0.73, 1.14)

Nc1nc(=O)n([C@@H]2CS[C@H](CO)O2)cc1F [Emtricitabine, emtricitabine]
EC50: 53 nM | overall antiviral effect of the two-drug combination with Example 19 (in words): synergistic | Combination Indices at 50% HIV Inhibition (Confidence Interval) [1]: 0.31 (0.27, 0.36) | Combination Indices at 75% HIV Inhibition (Confidence Interval) [1]: 0.23 (0.18, 0.28) | Combination Indices at 90% HIV Inhibition (Confidence Interval) [1]: 0.18 (0.12, 0.24) | Combination Indices at 50% HIV Inhibition (Confidence Interval) [2]: 0.31 (0.26, 0.37) | Combination Indices at 75% HIV Inhibition (Confidence Interval) [2]: 0.23 (0.19, 0.29) | Combination Indices at 90% HIV Inhibition (Confidence Interval) [2]: 0.17 (0.12, 0.28) | Combination Indices at 50% HIV Inhibition (Confidence Interval) [3]: 0.33 (0.28, 0.38) | Combination Indices at 75% HIV Inhibition (Confidence Interval) [3]: 0.25 (0.20, 0.30) | Combination Indices at 90% HIV Inhibition (Confidence Interval) [3]: 0.19 (0.13, 0.25)

CC(C)(C)NC(=O)[C@@H]1CN(Cc2cccnc2)CCN1C[C@@H](O)C[C@@H](Cc1ccccc1)C(=O)N[C@H]1c2ccccc2C[C@H]1O [Indinavir, indinavir]
EC50: 26 nM | overall antiviral effect of the two-drug combination with Example 19 (in words): additive relationship with Example 19 cannot be ruled out | Combination Indices at 50% HIV Inhibition (Confidence Interval) [1]: 0.86 (0.80, 0.92) | Combination Indices at 75% HIV Inhibition (Confidence Interval) [1]: 0.71 (0.62, 0.81) | Combination Indices at 90% HIV Inhibition (Confidence Interval) [1]: 0.60 (0.46, 0.73) | Combination Indices at 50% HIV Inhibition (Confidence Interval) [2]: 0.92 (0.84, 0.99) | Combination Indices at 75% HIV Inhibition (Confidence Interval) [2]: 0.84 (0.76, 0.92) | Combination Indices at 90% HIV Inhibition (Confidence Interval) [2]: 0.77 (0.66, 0.89) | Combination Indices at 50% HIV Inhibition (Confidence Interval) [3]: 0.94 (0.87, 1.02) | Combination Indices at 75% HIV Inhibition (Confidence Interval) [3]: 0.79 (0.71, 0.87) | Combination Indices at 90% HIV Inhibition (Confidence Interval) [3]: 0.67 (0.57, 0.77)

Cc1cccc(C)c1OCC(=O)N[C@@H](Cc1ccccc1)[C@@H](O)C[C@H](Cc1ccccc1)NC(=O)[C@H](C(C)C)N1CCCNC1=O [Lopinavir, lopinavir]
EC50: 17 nM | overall antiviral effect of the two-drug combination with Example 19 (in words): additive relationship with Example 19 cannot be ruled out | Combination Indices at 50% HIV Inhibition (Confidence Interval) [1]: 0.74 (0.67, 0.82) | Combination Indices at 75% HIV Inhibition (Confidence Interval) [1]: 0.77 (0.66, 0.88) | Combination Indices at 50% HIV Inhibition (Confidence Interval) [2]: 0.77 (0.66, 0.88) | Combination Indices at 75% HIV Inhibition (Confidence Interval) [2]: 0.56 (0.36, 0.75) | Combination Indices at 90% HIV Inhibition (Confidence Interval) [2]: 0.41 (0.19, 0.64) | Combination Indices at 50% HIV Inhibition (Confidence Interval) [3]: 0.76 (0.69, 0.83) | Combination Indices at 75% HIV Inhibition (Confidence Interval) [3]: 0.62 (0.55, 0.70) | Combination Indices at 90% HIV Inhibition (Confidence Interval) [3]: 0.54 (0.47, 0.61)
